Measured values from patent US20240199587A1, “HETEROCYCLIC COMPOUNDS” (Hoffmann-La Roche Inc., priority 2021, published 2024).

Target: T1, MAGL (Homo sapiens, UniProt Q99685)
T1 sequence (Q99685 1-303): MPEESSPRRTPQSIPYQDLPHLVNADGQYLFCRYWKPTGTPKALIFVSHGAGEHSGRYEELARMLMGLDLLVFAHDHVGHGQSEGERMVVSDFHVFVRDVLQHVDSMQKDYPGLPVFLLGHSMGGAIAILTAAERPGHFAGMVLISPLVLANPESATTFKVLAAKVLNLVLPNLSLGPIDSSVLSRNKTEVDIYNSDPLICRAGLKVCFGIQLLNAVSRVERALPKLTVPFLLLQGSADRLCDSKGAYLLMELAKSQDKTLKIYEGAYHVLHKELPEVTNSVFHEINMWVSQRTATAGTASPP
Assay: 2-AG assay (MAGL inhibitory activity, hydrolysis of 2-arachidonoylglycerol to arachidonic acid followed by mass spectrometry)
Assay type: biochemical
Settings: 8 μM 2-arachidonoylglycerol, 15 min pre-incubation, 30 min incubation at RT, RapidFire MS readout
Procedure, shortened: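 Arachidonic acid released from 8 μM 2-arachidonoylglycerol was quantified by online SPE triple-quadrupole MS (negative ESI, 303.1→259.1), normalised to d8-arachidonic acid internal standard. Reaction ran 30 min at RT after 15 min RT compound pre-incubation with […] MAGL in TRIS/EDTA/Tween-20 buffer, 2.5% DMSO.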

Row | IC50 [µM] | Compound
1 | 0.949 | O=C(N1CC(c2nnc(CC3CC3)[nH]2)C1)N1CC2(CC(n3cnc(C4CC4)n3)C2)C1 [Example 333, [3-[5-(cyclopropylmethyl)-4H-1,2,4-triazol-3-yl]azetidin-1-yl]-[6-(3-cyclopropyl-1,2,4-triazol-1-yl)-2-azaspiro[3.3]heptan-2-yl]methanone]
2 | 0.993 | CNC(=O)c1ccccc1S(=O)(=O)N1CC2(CN(C(=O)N3CC4(CC(n5cnc(C6CC6)n5)C4)C3)C2)C1 [Example 334]
3 | 1.4 | CNC(=O)[C@@H](c1ccc(F)cc1)N1CCN(C(=O)N2CC3(CC(n4cnc(C5CC5)n4)C3)C2)CC1 [Example 335, (2R)-2-[4-[6-(3-cyclopropyl-1,2,4-triazol-1-yl)-2-azaspiro[3.3]heptane-2-carbonyl]piperazin-1-yl]-2-(4-fluorophenyl)-N-methyl-acetamide]
4 | 1.44 | O=C(N1CCC(NS(=O)(=O)c2ccc(F)cc2)CC1)N1CC2(CC(n3cnc(C4CC4)n3)C2)C1 [Example 336, N-[1-[6-(3-cyclopropyl-1,2,4-triazol-1-yl)-2-azaspiro[3.3]heptane-2-carbonyl]-4-piperidyl]-4-fluoro-benzenesulfonamide]
5 | 1.83 | O=C(N1CC2(CC(n3cnc(C4CC4)n3)C2)C1)N1CC2(C1)CN(C(=O)C(F)(F)F)C2 [Example 337, 1-[2-[6-(3-cyclopropyl-1,2,4-triazol-1-yl)-2-azaspiro[3.3]heptane-2-carbonyl]-2,6-diazaspiro[3.3]heptan-6-yl]-2,2,2-trifluoro-ethanone]
6 | 2.15 | O=C(O)c1ccccc1S(=O)(=O)N1CC2(CN(C(=O)N3CC4(CC(n5cnc(C6CC6)n5)C4)C3)C2)C1 [Example 338, 2-[[6-[6-(3-cyclopropyl-1,2,4-triazol-1-yl)-2-azaspiro[3.3]heptane-2-carbonyl]-2,6-diazaspiro[3.3]heptan-2-yl]sulfonyl]benzoic acid]
7 | 3.01 | O=C(N1CC2(CC(n3cnc(C4CC4)n3)C2)C1)N1CC2(C1)CN(S(=O)(=O)C1CS(=O)(=O)C1)C2 [Example 339, [6-(3-cyclopropyl-1,2,4-triazol-1-yl)-2-azaspiro[3.3]heptan-2-yl]-[2-(1,1-dioxothietan-3-yl)sulfonyl-2,6-diazaspiro[3.3]heptan-6-yl]methanone]
8 | 3.19 | CNC(=O)C(c1ccc(F)cc1)N1CCN(C(=O)N2CC3(CC(n4cnc(C5CC5)n4)C3)C2)CC1 (stereo not drawn) [Example 340, 2-[4-[6-(3-cyclopropyl-1,2,4-triazol-1-yl)-2-azaspiro[3.3]heptane-2-carbonyl]piperazin-1-yl]-2-(4-fluorophenyl)-N-methyl-acetamide]
9 | 0.491 | O=C(N1CC2(CC(Cc3ccc(F)cc3F)C2)C1)N1CC2(CC(c3ccc(F)cc3)C2)C1 [Example 343, [6-[(2,4-difluorophenyl)methyl]-2-azaspiro[3.3]heptan-2-yl]-[6-(4-fluorophenyl)-2-azaspiro[3.3]heptan-2-yl]methanone]
10 | 0.00162 | CS(=O)(=O)c1cc(Cl)ccc1-c1ccc(C2CN(C(=O)N3CC4(CC(c5cnc(C(F)(F)F)nc5)C4)C3)C2)cc1 [Example 344, [3-[4-(4-chloro-2-methylsulfonyl-phenyl)phenyl]azetidin-1-yl]-[6-[2-(trifluoromethyl)pyrimidin-5-yl]-2-azaspiro[3.3]heptan-2-yl]methanone]
11 | 0.0289 | O=C(N1CC2(CC(Cc3ccc(F)cc3F)C2)C1)N1CC2(CC(c3ccc(S(=O)(=O)C(F)(F)F)cc3)C2)C1 [Example 345, [6-[(2,4-difluorophenyl)methyl]-2-azaspiro[3.3]heptan-2-yl]-[6-[4-(trifluoromethylsulfonyl)phenyl]-2-azaspiro[3.3]heptan-2-yl]methanone]
12 | 0.0157 | CS(=O)(=O)c1ccc(C2CC3(C2)CN(C(=O)N2CC4(CC(Cc5ccc(F)cc5F)C4)C2)C3)cc1 [Example 346, [6-[(2,4-difluorophenyl)methyl]-2-azaspiro[3.3]heptan-2-yl]-[6-(4-methylsulfonylphenyl)-2-azaspiro[3.3]heptan-2-yl]methanone]
